# Legend:
# [1] = human, serum, 4383 h
# [2] = Times to onset, minimal and maximal, observed in the indexed observations. [column 'DELAI' in source]; conditions: human
# [3] = human
# [4] = Comments (NB not yet translated). [column 'COMMENTAIRES' in source]; conditions: human
# [5] = human; remark: listed apart in the source
# [6] = human; remark: listed apart in the source
# [7] = Presence of at least one case with successful reintroduction. [column 'REINT' in source]; conditions: human
# [8] = Highest frequency of moderate liver toxicity observed during clinical trials, expressed as a percentage. [column '% BIOL' in source]; conditions: human
# [9] = human; remark: listed apart in the source
# [10] = human; remark: listed apart in the source
# [11] = human; remark: listed apart in the source
# [12] = human, serum
# [13] = Proposed mechanism(s) of liver damage. [column 'MEC' in source]; conditions: human
# [14] = human; remark: listed apart in the source
# [15] = human; remark: listed apart in the source
# [16] = human; remark: listed apart in the source
# [17] = Highest frequency of acute liver toxicity observed during clinical trials, expressed as a percentage. [column '% AIGUE' in source]; conditions: human
# [18] = human, serum; remark: listed apart in the source
# 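Throughout, for Hepatotoxicity (association with vascular disease): count of indexed literature references reporting vascular liver injury in humans, e.g. peliosis hepatitis, hepatic veno-occlusive disease or Budd-Chiari syndrome.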
# 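Throughout, for Hepatotoxicity (benign tumour): value is a count of indexed literature references citing a benign tumour confirmed by histopathology.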
# 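Throughout, for Hepatotoxicity (choleostasis): human cholestatic liver injury, shown by histopathology or by peak ALT or AST elevation over alkaline phosphatase ratio below 2, value counts indexed literature reports.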
# 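Throughout, for Hepatotoxicity (chronic liver disease): chronic liver injury confirmed by histopathology or persistently raised serum aminotransferase activity beyond 6 months, value given as the count of indexed literature references.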
# 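Throughout, for Hepatotoxicity (cirrhosis): value is a count of indexed literature references reporting cirrhosis confirmed by histopathology.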
# 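Throughout, for Hepatotoxicity (cytolytic): human cytolytic liver injury, shown by histopathology or by a ratio above 5 of peak ALT or AST elevation to alkaline phosphatase elevation, value counts indexed references.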
# 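Throughout, for Hepatotoxicity (granulomatous hepatitis): value is a count of indexed literature references reporting granulomatous liver disease confirmed by histopathology.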
# 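Throughout, for Hepatotoxicity (malignant tumour): malignant tumour confirmed by histopathology, value gives the count of indexed literature references reporting it.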
# 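Throughout, for Hepatotoxicity (severe hepatitis): human clinical data: severe hepatitis, meaning potentially life-threatening liver failure or clinically observed cases, the value counts how many indexed literature references report it.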
# 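Throughout, for Hepatotoxicity (steatosis): steatosis confirmed by histopathology, value is the count of indexed references.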
compound,measurement,setting,value
COc1cc(Cc2cnc(N)nc2N)cc(OC)c1OC.Cc1cc(NS(=O)(=O)c2ccc(N)cc2)no1 [CO-TRIMOXAZOLE],Hepatotoxicity (chronic liver disease),[1],3
same,Hepatotoxicity (time to onset),[2],2 hours - 2 months
same,Hepatotoxicity (severe hepatitis),[3]; Liver,11
same,Hepatotoxicity (comment),[4],RC/CEFADROXIL/SULFASALAZINE #CBP AC_ANTI-ML
same,Hepatotoxicity (association with vascular disease),[5],0
same,Hepatotoxicity (cirrhosis),[6],0
same,Hepatotoxicity (successful reintroduction),[7],yes
same,Hepatotoxicity (moderate),[8]; Liver,53.8%
same,Hepatotoxicity (cytolytic),[9]; Liver,17
same,Hepatotoxicity (granulomatous hepatitis),[10]; Liver,1
same,Hepatotoxicity (malignant tumour),[11],0
same,Hepatotoxicity (moderate),[12],46
same,Hepatotoxicity (mechanism),[13]; Liver,"Allergic, Dose-dependant, Toxic Metabolite"
same,Hepatotoxicity (benign tumour),[14],0
same,Hepatotoxicity (choleostasis),[15]; Liver,35
same,Hepatotoxicity (steatosis),[16],1
O=C1OCCN1/N=C/c1ccc([N+](=O)[O-])o1 [FURAZOLIDONE],Hepatotoxicity (chronic liver disease),[1],0
same,Hepatotoxicity (severe hepatitis),[3],0
same,Hepatotoxicity (comment),[4],RC/NITROFURANTOINE
same,Hepatotoxicity (cirrhosis),[6],0
same,Hepatotoxicity (successful reintroduction),[7],yes
same,Hepatotoxicity (moderate),[8],0%
same,Hepatotoxicity (cytolytic),[9],1
same,Hepatotoxicity (granulomatous hepatitis),[10],0
same,Hepatotoxicity (malignant tumour),[11],0
same,Hepatotoxicity (moderate),[12],1
same,Hepatotoxicity (acute),[17],0%
same,Hepatotoxicity (mechanism),[13],Allergic
same,Hepatotoxicity (benign tumour),[14],0
same,Hepatotoxicity (choleostasis),[15],3
same,Hepatotoxicity (steatosis),[16],0
same,Hepatotoxicity (acute),[18],3
O=C(CCCN1CCC(O)(c2ccc(Cl)cc2)CC1)c1ccc(F)cc1 [HALOPERIDOL],Hepatotoxicity (chronic liver disease),[1],1
same,Hepatotoxicity (time to onset),[2],2 weeks - 5 months
same,Hepatotoxicity (severe hepatitis),[3],0
same,Hepatotoxicity (comment),[4],RC/FLUPHENAZINE CHOLESTASE_PROLONGEE #CBP
same,Hepatotoxicity (association with vascular disease),[5],0
same,Hepatotoxicity (cirrhosis),[6],0
same,Hepatotoxicity (successful reintroduction),[7],yes
same,Hepatotoxicity (moderate),[8],35.1%
same,Hepatotoxicity (cytolytic),[9],4
same,Hepatotoxicity (granulomatous hepatitis),[10],0
same,Hepatotoxicity (malignant tumour),[11],0
same,Hepatotoxicity (moderate),[12],12
same,Hepatotoxicity (acute),[17],0.8%
same,Hepatotoxicity (mechanism),[13],Allergic
same,Hepatotoxicity (benign tumour),[14],0
same,Hepatotoxicity (choleostasis),[15],8
same,Hepatotoxicity (steatosis),[16],0
Clc1ccc(C(c2ccccc2Cl)C(Cl)Cl)cc1 (stereo unspecified) [MITOTANE],Hepatotoxicity (chronic liver disease),[1],0
same,Hepatotoxicity (severe hepatitis),[3],0
same,Hepatotoxicity (comment),[4],INDUCTION_ENZYMATIQUE
same,Hepatotoxicity (association with vascular disease),[5],0
same,Hepatotoxicity (cirrhosis),[6],0
same,Hepatotoxicity (successful reintroduction),[7],yes
same,Hepatotoxicity (moderate),[8],0%
same,Hepatotoxicity (cytolytic),[9],0
same,Hepatotoxicity (granulomatous hepatitis),[10],0
same,Hepatotoxicity (malignant tumour),[11],0
same,Hepatotoxicity (moderate),[12],5
same,Hepatotoxicity (acute),[17],0%
same,Hepatotoxicity (mechanism),[13],Dose-dependant
same,Hepatotoxicity (benign tumour),[14],0
same,Hepatotoxicity (choleostasis),[15],0
same,Hepatotoxicity (steatosis),[16],0
same,Hepatotoxicity (acute),[18],0
CCCc1cc(=O)[nH]c(=S)[nH]1 [PROPYLTHIOURACIL],Hepatotoxicity (chronic liver disease),[1],4
same,Hepatotoxicity (time to onset),[2],1 day - 1.3 years
same,Hepatotoxicity (severe hepatitis),[3]; Liver,19
same,Hepatotoxicity (comment),[4],AC_ANTI-N/-M CHOLESTASE_PROLONGEE
same,Hepatotoxicity (association with vascular disease),[5],0
same,Hepatotoxicity (cirrhosis),[6],1
same,Hepatotoxicity (successful reintroduction),[7],yes
same,Hepatotoxicity (moderate),[8]; Liver,27.8%
same,Hepatotoxicity (cytolytic),[9]; Liver,31
same,Hepatotoxicity (granulomatous hepatitis),[10]; Liver,0
same,Hepatotoxicity (malignant tumour),[11],0
same,Hepatotoxicity (moderate),[12],5
same,Hepatotoxicity (mechanism),[13]; Liver,"Allergic, Reactive metabolite"
same,Hepatotoxicity (benign tumour),[14],0
same,Hepatotoxicity (choleostasis),[15]; Liver,15
same,Hepatotoxicity (steatosis),[16],0
C=C[C@H]1C[N@@]2CC[C@H]1C[C@@H]2[C@@H](O)c1ccnc2ccc(OC)cc12 [QUINIDINE],Hepatotoxicity (chronic liver disease),[1],1
same,Hepatotoxicity (time to onset),[2],1 day - 7 months
same,Hepatotoxicity (severe hepatitis),[3]; Liver,2
same,Hepatotoxicity (comment),[4],RC/PRAJMALINE
same,Hepatotoxicity (association with vascular disease),[5],0
same,Hepatotoxicity (cirrhosis),[6],0
same,Hepatotoxicity (successful reintroduction),[7],yes
same,Hepatotoxicity (moderate),[8]; Liver,2%
same,Hepatotoxicity (cytolytic),[9],12
same,Hepatotoxicity (granulomatous hepatitis),[10],11
same,Hepatotoxicity (malignant tumour),[11],0
same,Hepatotoxicity (moderate),[12],5
same,Hepatotoxicity (mechanism),[13],Allergic
same,Hepatotoxicity (benign tumour),[14],0
same,Hepatotoxicity (choleostasis),[15],12
same,Hepatotoxicity (steatosis),[16],0
C=C[C@H]1C[N@@]2CC[C@H]1C[C@H]2[C@H](O)c1ccnc2ccc(OC)cc12 [QUININE],Hepatotoxicity (chronic liver disease),[1],0
same,Hepatotoxicity (time to onset),[2],< 1 day - 2 years
same,Hepatotoxicity (severe hepatitis),[3]; Liver,0
same,Hepatotoxicity (comment),[4],AC_ANTI-N
same,Hepatotoxicity (association with vascular disease),[5],0
same,Hepatotoxicity (cirrhosis),[6],0
same,Hepatotoxicity (successful reintroduction),[7],yes
same,Hepatotoxicity (moderate),[8]; Liver,15.4%
same,Hepatotoxicity (cytolytic),[9],3
same,Hepatotoxicity (granulomatous hepatitis),[10],4
same,Hepatotoxicity (malignant tumour),[11],0
same,Hepatotoxicity (moderate),[12],2
same,Hepatotoxicity (mechanism),[13],Allergic
same,Hepatotoxicity (benign tumour),[14],0
same,Hepatotoxicity (choleostasis),[15],2
same,Hepatotoxicity (steatosis),[16],0
CC1(C)S[C@@H]2[C@H](NC(=O)[C@H](C(=O)O)c3ccsc3)C(=O)N2[C@H]1C(=O)O [TICARCILLIN],Hepatotoxicity (chronic liver disease),[1],0
same,Hepatotoxicity (time to onset),[2],2 days - 1 week
same,Hepatotoxicity (severe hepatitis),[3],0
same,Hepatotoxicity (comment),[4],RC/CARBENICILLINE
same,Hepatotoxicity (association with vascular disease),[5],0
same,Hepatotoxicity (cirrhosis),[6],0
same,Hepatotoxicity (successful reintroduction),[7],yes
same,Hepatotoxicity (moderate),[8],5%
same,Hepatotoxicity (cytolytic),[9],0
same,Hepatotoxicity (granulomatous hepatitis),[10],0
same,Hepatotoxicity (malignant tumour),[11],0
same,Hepatotoxicity (moderate),[12],7
same,Hepatotoxicity (acute),[17],0%
same,Hepatotoxicity (benign tumour),[14],0
same,Hepatotoxicity (choleostasis),[15],0
same,Hepatotoxicity (steatosis),[16],0
same,Hepatotoxicity (acute),[18],0
Cc1ccc(S(=O)(=O)NC(=O)NN2CCCCCC2)cc1 [TOLAZAMIDE],Hepatotoxicity (chronic liver disease),[1],0
same,Hepatotoxicity (time to onset),[2],3 weeks - 18 months
same,Hepatotoxicity (severe hepatitis),[3],1
same,Hepatotoxicity (comment),[4],CHOLESTASE_PROLONGEE RC/CHLORPROPAMIDE
same,Hepatotoxicity (association with vascular disease),[5],0
same,Hepatotoxicity (cirrhosis),[6],0
same,Hepatotoxicity (successful reintroduction),[7],yes
same,Hepatotoxicity (moderate),[8],0%
same,Hepatotoxicity (cytolytic),[9],5
same,Hepatotoxicity (granulomatous hepatitis),[10],0
same,Hepatotoxicity (malignant tumour),[11],0
same,Hepatotoxicity (moderate),[12],0
same,Hepatotoxicity (acute),[17],0%
same,Hepatotoxicity (benign tumour),[14],0
same,Hepatotoxicity (choleostasis),[15],4
same,Hepatotoxicity (steatosis),[16],0
same,Hepatotoxicity (acute),[18],5
CC(=O)CC(c1ccccc1)c1c(O)c2ccccc2oc1=O (stereo unspecified) [WARFARIN],Hepatotoxicity (chronic liver disease),[1],0
same,Hepatotoxicity (time to onset),[2],1 week - 2.5 years
same,Hepatotoxicity (severe hepatitis),[3],0
same,Hepatotoxicity (comment),[4],RC/PHENPROCOUMON RUPTURE_HEPATIQUE #S.REYE
same,Hepatotoxicity (association with vascular disease),[5],0
same,Hepatotoxicity (cirrhosis),[6],0
same,Hepatotoxicity (successful reintroduction),[7],yes
same,Hepatotoxicity (moderate),[8],0%
same,Hepatotoxicity (cytolytic),[9],0
same,Hepatotoxicity (granulomatous hepatitis),[10],0
same,Hepatotoxicity (malignant tumour),[11],0
same,Hepatotoxicity (moderate),[12],2
same,Hepatotoxicity (acute),[17],0%
same,Hepatotoxicity (benign tumour),[14],0
same,Hepatotoxicity (choleostasis),[15],5
same,Hepatotoxicity (steatosis),[16],0
same,Hepatotoxicity (acute),[18],6
Cc1cn([C@H]2C[C@H](N=[N+]=[N-])[C@@H](CO)O2)c(=O)[nH]c1=O [ZIDOVUDINE],Hepatotoxicity (chronic liver disease),[1],0
same,Hepatotoxicity (time to onset),[2],1 week - 8 years
same,Hepatotoxicity (severe hepatitis),[3],13
same,Hepatotoxicity (comment),[4],I/INTERFERON/PARACETAMOL REACTIVATION_HVB
same,Hepatotoxicity (association with vascular disease),[5],0
same,Hepatotoxicity (cirrhosis),[6],0
same,Hepatotoxicity (successful reintroduction),[7],yes
same,Hepatotoxicity (moderate),[8],44%
same,Hepatotoxicity (cytolytic),[9],22
same,Hepatotoxicity (granulomatous hepatitis),[10],0
same,Hepatotoxicity (malignant tumour),[11],0
same,Hepatotoxicity (moderate),[12],26
same,Hepatotoxicity (acute),[17],12.5%
same,Hepatotoxicity (benign tumour),[14],0
same,Hepatotoxicity (choleostasis),[15],3
same,Hepatotoxicity (steatosis),[16],17
same,Hepatotoxicity (acute),[18],25
ALTEPLASE,Hepatotoxicity (chronic liver disease),[1],0
same,Hepatotoxicity (time to onset),[2],3 days - 4 days
same,Hepatotoxicity (severe hepatitis),[3],0
same,Hepatotoxicity (comment),[4],AGGRAVATION_MVO
same,Hepatotoxicity (association with vascular disease),[5],0
same,Hepatotoxicity (cirrhosis),[6],0
same,Hepatotoxicity (successful reintroduction),[7],yes
same,Hepatotoxicity (moderate),[8],21.2%
same,Hepatotoxicity (cytolytic),[9],1
same,Hepatotoxicity (granulomatous hepatitis),[10],0
same,Hepatotoxicity (malignant tumour),[11],0
same,Hepatotoxicity (moderate),[12],4
same,Hepatotoxicity (acute),[17],0%
same,Hepatotoxicity (benign tumour),[14],0
same,Hepatotoxicity (choleostasis),[15],0
same,Hepatotoxicity (steatosis),[16],0
same,Hepatotoxicity (acute),[18],1
STREPTOKINASE,Hepatotoxicity (chronic liver disease),[1],0
same,Hepatotoxicity (time to onset),[2],1 day - 1 week
same,Hepatotoxicity (severe hepatitis),[3],0
same,Hepatotoxicity (comment),[4],RUPTURE_HEPATIQUE
same,Hepatotoxicity (association with vascular disease),[5],0
same,Hepatotoxicity (cirrhosis),[6],0
same,Hepatotoxicity (successful reintroduction),[7],yes
same,Hepatotoxicity (moderate),[8],75%
same,Hepatotoxicity (cytolytic),[9],5
same,Hepatotoxicity (granulomatous hepatitis),[10],0
same,Hepatotoxicity (malignant tumour),[11],0
same,Hepatotoxicity (moderate),[12],12
same,Hepatotoxicity (acute),[17],0%
same,Hepatotoxicity (benign tumour),[14],0
same,Hepatotoxicity (choleostasis),[15],3
same,Hepatotoxicity (steatosis),[16],0
same,Hepatotoxicity (acute),[18],9
